From article PMC6280482, “The natural polyphenol curcumin induces apoptosis by suppressing STAT3 signaling in esophageal squamous cell carcinoma” (Journal of Experimental & Clinical Cancer Research : CR, 2018)

Target: JAK2 (Homo sapiens, UniProt O60674)
Experiment: cell-free kinase activity assay with purified JAK2 (HotSpot, Reaction Biology)
Format: biochemical

Sequence of JAK2 (O60674 whole entry): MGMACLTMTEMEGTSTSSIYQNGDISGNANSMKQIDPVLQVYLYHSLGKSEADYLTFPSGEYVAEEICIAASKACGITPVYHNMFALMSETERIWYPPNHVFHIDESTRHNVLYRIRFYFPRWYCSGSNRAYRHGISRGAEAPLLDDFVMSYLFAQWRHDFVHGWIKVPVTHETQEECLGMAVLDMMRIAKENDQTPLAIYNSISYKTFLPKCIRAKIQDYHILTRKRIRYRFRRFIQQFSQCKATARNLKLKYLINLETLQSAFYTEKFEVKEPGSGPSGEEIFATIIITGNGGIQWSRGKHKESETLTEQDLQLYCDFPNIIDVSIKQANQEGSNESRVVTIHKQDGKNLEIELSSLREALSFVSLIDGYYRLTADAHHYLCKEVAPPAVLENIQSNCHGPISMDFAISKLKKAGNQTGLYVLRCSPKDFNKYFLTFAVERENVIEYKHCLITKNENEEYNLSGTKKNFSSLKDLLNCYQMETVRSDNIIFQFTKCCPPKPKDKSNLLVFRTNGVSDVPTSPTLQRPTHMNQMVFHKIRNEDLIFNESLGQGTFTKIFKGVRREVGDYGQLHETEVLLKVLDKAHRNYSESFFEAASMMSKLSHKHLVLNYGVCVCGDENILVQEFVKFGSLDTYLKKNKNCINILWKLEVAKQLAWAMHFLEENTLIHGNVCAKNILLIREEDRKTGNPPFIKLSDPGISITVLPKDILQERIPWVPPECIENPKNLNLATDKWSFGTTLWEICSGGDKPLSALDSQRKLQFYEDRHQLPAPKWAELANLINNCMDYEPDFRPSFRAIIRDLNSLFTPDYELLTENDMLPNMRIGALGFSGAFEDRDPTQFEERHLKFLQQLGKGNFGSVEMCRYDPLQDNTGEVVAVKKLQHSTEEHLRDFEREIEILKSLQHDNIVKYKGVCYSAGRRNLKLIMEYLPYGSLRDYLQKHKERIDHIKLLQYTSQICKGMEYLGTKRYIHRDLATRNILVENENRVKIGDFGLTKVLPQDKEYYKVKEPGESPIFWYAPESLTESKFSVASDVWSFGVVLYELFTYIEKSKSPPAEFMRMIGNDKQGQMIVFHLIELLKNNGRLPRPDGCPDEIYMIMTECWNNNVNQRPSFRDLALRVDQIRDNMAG

## COc1cc(/C=C/C(=O)CC(=O)/C=C/c2ccc(O)c(OC)c2)ccc1O [curcumin]
  IC50: ~8 µM
